In patent US20190388510A1, “GLUCAGON-T3 CONJUGATES” (priority 2016, published 2019):
*1 amine or outer side, *2 acyl side, *3 side chain or, on linkers, in order; H or OH if unused. Where a SMILES comes first, the peptide text is derived from it. Where no end group is shown, it is not given here. Side-chain parts run from the residue outwards. [ ]: non-standard residue; d: D form. Thyronine(3,5,3'-I3) = N[C@@H](Cc1cc(I)c(Oc2ccc(O)c(I)c2)c(I)c1)C(=O)O; γGlu = O=C(O)[C@H](CCC(=O)[*:2])N[*:1]

Experiments:
[1] = system: HFHSD-fed male C57Bl6j mice; assay: Metabolic efficacy of different glucagon/T3 conjugate versions in HFHSD-fed mice; format: in vivo, mouse; conditions: 100 nmol kg-1 daily, 14 days
Description: For studies on lipid handling in wildtype mice (Western mice), male C57Bl/6j mice (Jackson Laboratories) were fed a atherogenic Western diet (Research Diets D12079B), which is a high-cholesterol diet (0.21% gm %) with 41% kcal from fat, 43% kcal from carbohydrates, and 17% kcal from protein. For studies on energy metabolism in obese mice (DIO mice), male C57Bl/6j mice (Jackson Laboratories) were fed a diabetogenic diet (Research Diets D12331), which is a high-sucrose diet with 58% kcal from fat 25.5% kcal from carbohydrates, and 16.4% kcal from protein. Both dietary challenges began at 8 weeks of age. HFHSD and HFHCD mice were single- or group-housed on a 12:12-h light-dark cycle at 22° C. with free access to food and water. Mice were maintained under these conditions for a minimum of 16 weeks before initiation of pharmacological studies and were between the ages of 6 months to 12 months old. All injections and tests were performed during the light cycle. Compounds were administered in a vehicle of 1% Tween-80 and 1% DMSO and were given by daily subcutaneous injections at the indicated doses at a volume of 5 μl per g body weight. Mice were randomized and evenly distributed to test groups according to body weight and body composition. If ex vivo molecular biology/histology/biochemistry analyses were performed, the entire group of mice for each treatment was analyzed and scored in a blinded fashion.
Compounds were administered by repeated subcutaneous injections in the middle of the light phase at the indicated doses with the indicated durations. Co-administration of compounds was administered by single formulated injections. Body weights and food intake were measured every day or every other day after the first injection. All studies with wild-type mice were performed with a group size of n=8 or greater using mice on a C57B16j background.
Blood was collected at the indicated times from tail veins or after euthanasia using EDTA-coated microvette tubes (Sarstedt), immediately chilled on ice, centrifuged at 5,000 g and 4° C., and plasma was stored at −80° C. For […] (FPLC) of cholesterol distribution in different lipoprotein fractions, fresh plasma from each treatment group was pooled (n=6-8) and ran over two Superose 6 HR columns in tandem. Cholesterol levels in the collected fractions were determined by colorimetric assay. Plasma insulin and T3 were quantified by an ELISA assay (Ultrasenstive Mouse Insulin ELISA and Rodent T3 ELISA; Alpco). Plasma FGF21 was quantified by an ELISA assay (Mouse FGF21 ELISA; Millipore). Plasma cholesterol, extracted hepatic cholesterol, triglycerides, ALT, and AST were measured using enzymatic assay kits (Thermo Fisher). Plasma creatinine and blood urea nitrogen were measured using enzymatic assay kits (Abcam). Plasma free fatty acids were measured using enzymatic assay kits (Wako). All assays were performed according to the manufacturers' instructions.

DIO mice = assay: Cardiac function and histology in DIO mice (echocardiography); format: in vivo, mouse; conditions: mouse, in vivo
Method: After chronic treatment, HFHCD-fed or HFHSD-fed C57B16/j male mice (age) were sacrificed with CO2, body weight as well as heart weights and tibia length was taken during necropsy. Livers and whole hearts were embedded in paraffin using a vacuum infiltration processor TissueTEK VIP (Sakura). 3 μm thick slides were cut using a HMS35 rotatory microtome (Zeiss) and H & E staining was performed. For H & E staining, rehydration was done in a decreasing ethanol series, rinsing with tapwater, 2 min Mayers acid Hemalum, bluing in tapwater followed by lmin EosinY (both BioOptica). Dehydration was performed in increasing ethanol series, mounting with Pertex® (Medite GmbH) and coverslips (CarlRoth Chemicals). The slides were evaluated independently using a brightfield microscope (Axioplan, Zeiss). Photos were taken using the Hamamatsu-Nanozoomer HT2.0 in 1.25×, 5×. 20× and 40× magnification. The hepatic steatosis score is defined as the unweighted sum of the three individual scores for steatosis, lobular inflammation and ballooning degeneration. Steatosis is graded by the presence of fat vacuoles in liver cells according to the percentage of affected tissue (0: <5%; 1: 5-33%; 2: 33-66%; 3: >66%). Lobular inflammation is scored by overall assessment of inflammatory foci per 200× field (0: no foci; 1: <2 foci; 2: 2-4 foci; 3: >4 foci). The individual score for ballooning degeneration ranges from 0 (none), 1 (few cells) to 2 (many cells). Total scores range from 0 to 8 with scores <2 considered non-steatosis, 3 considered as borderline steatosis, 4-5 considered onset of steatosis, and >6 considered steatosis. Different to liver and heart, inguinal fat pad samples were embedded in paraffin using Leica embedding machine (EG1150 H) and cut in 5 μm sections using Leica Microtome (RM2255) to perform H&E staining. Samples were stained with hematoxyline for 4 minutes and eosinY for 2 minutes and fixed with Roti®-Histokitt (Carl Roth) before analysing them independently using Microscope Scope A.1 (Zeiss).
For transthoracic echocardiography, a Vevo2100 Imaging System (VisualSonics Inc., Toronto Canada) with a 30 MHz probe was used. All echocardiograms were performed on conscious animals to prevent anesthesia-related impairment of cardiac function as reported previously. Briefly, echocardiograms were obtained in parasternal long and short axis views. For accurate linear measurements of LV internal dimensions (LVID) and […] (LVPW) or septal (IVS) wall thicknesses, M-mode images of the heart in parasternal short-axis view at the level of the papillary muscle were acquired. Qualitative and quantitative measurements were made offline using analytical software (VisualSonics Inc.). Fractional shortening (FS) was calculated as FS %=[(LVIDd−LVIDs)/LVIDd]×100. Ejection fraction (EF) was calculated as EF %=100*((LVvolD−LVvolS)/LVvolD) with LVvol=((7.0/(2.4+LVID)*LVID^3). The corrected LV mass (LV MassCor) was calculated as LV MassCor=0.8(1.053*((LVIDd+LVPWd+IVSd)^3−LVIDd^3)). Heart rate and respiration rate were determined from M-mode tracings, using 3 consecutive intervals.
Gene expression profiling in the liver, iWAT, eWAT, BAT, and heart were performed following treatment of mice according to the treatment paradigms explained in the figure legends for each specific analsysis. For tissue collection, mice were fasted for 4 h and treated with compounds 2 h prior to tissue collection. Gene expression was profiled with quantitative real-time RT-PCR using either TaqMan single probes or with specifically-designed TaqMan low-density array cards. The relative expression of the selected genes was normalized to the reference gene hypoxanthine-guanine phosphoribosyltransferase (Hprt).

[2] = format: in vitro ADME, human
Method: Each compound was incubated with phosphate buffered saline (PBS, pH=7.4) containing 60% mouse plasma at 37° C. for the duration of the study. At the time points of 6 h, 24 h and 72 h, aliquots of the incubated solutions were withdrawn and diluted with acetonitrile to precipitate the plasma proteins, which were subsequently removed by microcentrifugation at 13,000 rpm for 5 mins. The supernatant was collected and diluted for the analytical reversed-phase HPLC using a linear gradient of buffer B over buffer A (A: 10% aqueous acetonitrile, 0.1% TFA; B: 90% aqueous acetonitrile, 0.1% TFA) on a Zorbax C8 column (4.6×50 mm). RNA-Seq Total RNAs were extracted from frozen liver samples of 4 independent mice per group (vehicle, glucagon only, T3 only, co-administration of glucagon and T3 and glucagon/T3) using TriPure RNA reagent (Sigma). Poly-A isolation, library generation and amplification were performed according to the protocol of the mRNASeq Library Prep Kit (Lexogen). […] Mapping of color-coded reads on the mouse genome (mm10 assembly) was performed using the Lifescope software (Life Technologies). Reads for annotated (Ensembl) genes were counted using HtSeq. […] The synergy score (SS) was calculated as the relative fold change (FC) of (glucagon/T3) compared to the maximum FC of T3 and glucagon alone: SS=FC (glucagon/T3)/max (T3, glucagon). […]

| Compound | body weight lowering [1] | cholesterol lowering effect [1] | lipid lowering [1] | heart histology: thyrotoxic cardiomyopathy (DIO mice) | whole heart expression of T3-sensitive genes (Dio2, Ucp2) (DIO mice) | whole heart expression of hypertrophic gene markers (Nppa, Nppb) (DIO mice) | degradation in plasma [2] |
| --- | --- | --- | --- | --- | --- | --- | --- |
| glucagon/rT3: reverse T3 (rT3) coupled to the glucagon analog with the same linker chemistry as glucagon/T3 (H[dS]QGTFTSDYSKYLDSRRAQDFVQWLMNGGPSSGAPPPSK; not fully specified (residue 40); also: reverse T3 (rT3) coupled with same linker chemistry as glucagon/T3) | failed to lower body weight | not evident | did not lower lipids |  |  |  |  |
| glucagon/iT3: inverted attachment: amine of T3 covalently linked to the glucagon analog through a succinate spacer at Lys40 (H[dS]QGTFTSDYSKYLDSRRAQDFVQWLMNGGPSSGAPPPSK; not fully specified (residue 40)) | failed to lower body weight | not evident | did not lower lipids |  |  |  |  |
| CSCC[C@H](NC(=O)[C@H](CC(C)C)NC(=O)[C@H](Cc1c[nH]c2ccccc12)NC(=O)[C@H](CCC(N)=O)NC(=O)[C@@H](NC(=O)[C@H](Cc1ccccc1)NC(=O)[C@H](CC(=O)O)NC(=O)[C@H](CCC(N)=O)NC(=O)[C@H](C)NC(=O)[C@H](CCCNC(=N)N)NC(=O)[C@H](CCCNC(=N)N)NC(=O)[C@H](CO)NC(=O)[C@H](CC(=O)O)NC(=O)[C@H](CC(C)C)NC(=O)[C@H](Cc1ccc(O)cc1)NC(=O)[C@H](CCCCN)NC(=O)[C@H](CO)NC(=O)[C@H](Cc1ccc(O)cc1)NC(=O)[C@H](CC(=O)O)NC(=O)[C@H](CO)NC(=O)[C@@H](NC(=O)[C@H](Cc1ccccc1)NC(=O)[C@@H](NC(=O)CNC(=O)[C@H](CCC(N)=O)NC(=O)[C@@H](CO)NC(=O)[C@@H](N)Cc1c[nH]cn1)[C@@H](C)O)[C@@H](C)O)C(C)C)C(=O)N[C@@H](CC(N)=O)C(=O)NCC(=O)NCC(=O)N1CCC[C@H]1C(=O)N[C@@H](CO)C(=O)N[C@@H](CO)C(=O)NCC(=O)N[C@@H](C)C(=O)N1CCC[C@H]1C(=O)N1CCC[C@H]1C(=O)N1CCC[C@H]1C(=O)N[C@@H](CO)C(=O)N[C@@H](CCCCNC(=O)CC[C@H](NC(=O)[C@@H](N)Cc1cc(I)c(Oc2ccc(O)c(I)c2)c(I)c1)C(=O)O)C(N)=O [glucagon/T3] (H-H[dS]QGTFTSDYSKYLDSRRAQDFVQWLMNGGPSSGAPPPSK([γGlu-Thyronine(3,5,3'-I3)])-NH2; N-terminus assumed) |  |  |  | none of these manifestations of thyrotoxicity or thyroid hormone induced cardiomyopathy were detectable | did not appear to be regulated | did not appear to be regulated | remains intact with nearly no detectable degradation |
